Test results as given in patent US6613875B1, “Cyclic peptide tube” (The Scripps Research Institute, priority 1993, dated 2003).
Square brackets hold non-standard residues; d marks the D form.

How the values were obtained:
[1] = Single channel conductance, micro patch clamp on planar lipid bilayers; assay type: biochemical; conditions: for single channel conductance: peptide in the range of 10^−7 M in the subphase
Text: FIG. 26 illustrates a 140 second continuous K^+ single channel conductance recording at 50 mV of the channel forming compounds indicated in FIG. 24. Open-closed transitions indicate gating mechanisms which may reflect structural flexibility or rapid assembly-disassembly of the tubular membrane channel structures. Short and long channel life times in the open state could be distinguished with values of t(short)=0.71±0.03 ms and t(long)=37.14±8.99 ms (total number of events 510) with an overall open probability P(O) of 0.29. Peptide concentration at the subphase was 1.0×10^−7 M. As is expected for any such self-assembling channel forming species, channel opening lifetimes show significant dependence on the peptide concentration. Raising the added peptide concentration in the subphase to 2.0×10^−5 M, produces open channel lifetimes of […] >30 seconds.
Formation of transmembrane channels was also inferred from its highly efficient proton transport activity. Vesicles were prepared having pH 6.5 inside and pH 5.5 in the outside bulk solution. The collapse of the imposed pH gradient in these vesicles, upon formation of the putative transmembrane channel structure, was studied by monitoring the fluorescence intensity of an entrapped pH-sensitive dye. (V.E. Carmichael et al, in J.Am. Chem. Soc. (1989), vol. 111, pages 767-769). […] Unilamellar vesicles were prepared by the reverse-phase evaporation using DPPC, OPPC, cholestrol in the ratio of 1:1:2 in a solution containing 5(6)-carboxyfluorescein (20 mM in phosphate/saline buffer: 137 mM NaCl, 2.6 mM KCl, 6.4 mM Na2HPO4, 1.4 mM KH2PO4, pH 6.5) according to the method of F. Szoka et al. in Proc. Natl. Acad. Sci. USA (1978), vol. 75, pages 4194-4198. Liposomes were then sized by multiple extrusions through Nucleopore® polycarbonate membranes (10 times, 50 psi, using 0.8 and 2×0.4 micron filter stacks) and the untrapped 5(6)-carboxyfluorescein was removed by size exclusion chromatography (Sephadex G-25 column 1×30 cm) using the same phosphate/saline buffer according to the method of F. Olson et al. in Biochim. Biophys. Acta (1979), vol. 557, pages 9-23. Vesicles formed in this way are approximately 150 nanometer in diameter as determined by electron microscopy. (R. R. C. New, Ed. Liposomes, Oxford university Press, 1990). In each experiment, 70 ml of the stock vesicle solution (3.5×10^−3 M in phospholipids) was added to pH 5.5 buffer (1.3 ml, 137 mM NaCl, 2.6 mM KCl, 6.4 Na2HPO4, 1.4 KH2PO4) and placed in a 1 cm quartz cuvett inside a stirring thermojacketed sample holder of the florescence instrument and equilibrated at 25° C. for 15 minutes with gentle stirring. To the cuvett, through an injector port, […] of the channel forming compounds in DMSO was added with continuous fluorescence monitoring at 520 nm (excitation at 470 nm). The observed data were then normalized for comparison into the fractional change in fluorescence ((I0−It)/(I0−I∞)) (V. E. Carmichael et al, in J.Am. Chem. Soc. (1989), vol. 111, pages 767-769)). […] The lipid bilayers used were formed on the tip of patch pipettes using a mixture of synthetic POPE: POPS (4:1) (1-palmitoyl-2-oleoyl-Sn-glycero-3-phosphatidylethano lamine and -serine). Five to 10 ml of the peptide solution (1.0×10^−7 or 2.0×10^−6 M in 25% DMSO in buffer solution containing 500 mM NaCl or KCl, 5 mM CaCl2, 10 mM HEPES, pH 7.5) was added to 150 ml subphase volume resulting in spontaneous partitioning of the peptide into the membrane. Ion channels formed spontaneously after peptide was added to the subphase of lipid bilayers. […] Data acquisition and analysis were performed on a Gateway 2000/486 computer using pClamp software package and TL-1 labmaster interface. Acquisition rate was 0.1 ms and data were filtered at 2 kHz.
The ultimate test in establishing and quantitating the transport efficiency of a membrane channel structure is to measure its single channel conductance using micro patch clamp techniques. […]

[2] = Incorporation of peptide subunit into lipid bilayers of large unilamellar vesicles (absorption and fluorescence spectroscopy); assay type: physicochemical; conditions: aqueous liposomal suspensions
Text: Incorporation of the peptide subunit into lipid bilayers using large unilamellar vesicles has been established by absorption and fluorescence spectroscopy. Formation of the hydrogen-bonded transmembrane channel structure in phosphatidylcholin liposomes has been supported by FT-IR spectroscopy (FIG. 24). The observed amide-I band at 1624 cm^−1 is not only similar to the carbonyl stretching frequencies found in other nanotube structures disclosed herein, but is also consistent with the infrared spectrum of gramicidin A in similar lipid bilayers. (E. Nabedryk et al in Biophys. J. (1982), vol. 38, pages 243-249. Furthermore, the observed N-H stretching frequency at 3272 cm^−1 strongly supports the formation of a tight network of hydrogen bonds with an average intersubunit distance of 4.7 Å.
The second control peptide cyclo[-(^MeN-D-Ala-Phe)4-] which has the desirable hydrophobic surface characteristics but lacks the propensity for participating in extended hydrogen bonding network, was also designed and tested for ion transport activity. The peptide design incorporates a novel N-methylation strategy on one face of the ring structure which predisposes the subunit toward a dimeric cylindrical structure (Ghadiri, M. R., Kobayashi, K., Granja, J. R., Chadha, R., and McRee, D. E. manuscript in preparation). Such a dimeric cylindrical ensemble is approximately 10 Å thick and can not span the lipid bilayer.
The ten-residue peptide subunit employed in the present study, cyclo[-Gln-(D-Leu-Trp)4-D-Leu-], is made up of largely tryptophan and leucine residues to favor its partitioning into and self-assembly in lipid bilayers. It was synthesized on solid support^5 and characterized by ^1H NMR spectroscopy and mass spectrometry. […] This has been supported by absorption and fluorescence spectrophotometry and gel permeation studies. Formation of a hydrogen bonded transmembrane channel structure in phosphatidylcholin liposomes has been established by FT-IR spectroscopy^6. […]

[3] = K^+ recording at 50 mV, peptide 1.0×10^−7 M in subphase, 510 events

Substance	single channel conductance ([1]; 500 mM KCl) [pS]	single channel conductance ([1]; 500 mM NaCl)	actual rate of channel-mediated ion transport ([1]; K^+)	overall open probability P(O) ([1]; K^+ recording at 50 mV, peptide 1.0×10^−7 M in subphase)	channel life time in the open state, t(long) [1, 3] [ms]	channel life time in the open state, t(short) [1, 3] [ms]	actual rate of channel-mediated ion transport ([1]; Na^+)	rate of ion transport relative to gramicidin A under similar conditions ([1]; gramicidin A value from literature)	dependence of single channel conductance on applied voltage ([1]; measured range of 10-100 mV)	open channel lifetimes ([1]; peptide concentration in the subphase raised to 2.0×10^−5 M) [s]	ion channel activity observed (membranes with activity) ([1]; symmetrical solutions of 500 mM NaCl or KCl, 5 mM CaCl2, 10 mM HEPES, pH 7.5)	partitioning / incorporation into lipid bilayers [2]	ion transport rate / efficiency ([1]; single ion channel recordings)
cyclo[-(Trp-D-Leu)3-Gln-D-Leu-] (cyclo(W[dL]W[dL]W[dL]Q[dL]); SMILES CC(C)C[C@H]1NC(=O)[C@H](CCC(N)=O)NC(=O)[C@@H](CC(C)C)NC(=O)[C@H](Cc2c[nH]c3ccccc23)NC(=O)[C@@H](CC(C)C)NC(=O)[C@H](Cc2c[nH]c3ccccc23)NC(=O)[C@@H](CC(C)C)NC(=O)[C@H](Cc2c[nH]c3ccccc23)NC1=O) [eight residue ion channel forming cyclic peptide, approximately 7.5 Å pore]	~65	approximately 55 pS	2.2×10^7 ion.sec^−1	0.29	37.14 ± 8.99	0.71 ± 0.03	1.8×10^7 ion.sec^−1	three	independent of the applied voltage	> 30	14 out of 22	rapid partitioning	
cyclo[-Gln-(D-Leu-Trp)4-D-Leu-] (cyclo(Q[dL]W[dL]W[dL]W[dL]W[dL]); SMILES CC(C)C[C@H]1NC(=O)[C@H](CCC(N)=O)NC(=O)[C@@H](CC(C)C)NC(=O)[C@H](Cc2c[nH]c3ccccc23)NC(=O)[C@@H](CC(C)C)NC(=O)[C@H](Cc2c[nH]c3ccccc23)NC(=O)[C@@H](CC(C)C)NC(=O)[C@H](Cc2c[nH]c3ccccc23)NC(=O)[C@@H](CC(C)C)NC(=O)[C@H](Cc2c[nH]c3ccccc23)NC1=O) [10-residue cyclic peptide forming 10 Å pores that transport glucose]												rapid incorporation	> 10^7 ions.sec^−1
